Measured values: US20260263638A1, “COMPOSITIONS AND METHODS TO IMPROVE RNA PROPERTIES USING BASE, PHOSPHODIESTER LINKAGE, SUGAR BACKBONE, AND CAP MODIFICATIONS” (The Broad Institute, Inc., priority 2023, published 2026)
Strand notation (5' to 3'): a small letter for the sugar, then the base; units joined by * are phosphorothioate-linked, units joined directly phosphodiester-linked; [ ] holds rarer units or linkages, { } end groups; capitals alone tell only the bases. {m7G-cap} = 7-methylguanosine cap added chemically (m7GDP-imidazolide) to the 5'-phosphate; e = 2'-O-(2-methoxyethyl) (MOE); [I] = hypoxanthine (inosine); d = 2'-deoxy (DNA); m = 2'-O-methyl; r = 2'-OH (RNA); {P} = phosphate; f = 2'-fluoro

Assays:
[1] = test system: HeLa cells; assay: Time-course dual luciferase assay of modified Firefly luciferase mRNA (Renilla control); type: cell-based; conditions: for Effect of cap/5′ UTR modification on protein production / translation / Protein expression (Firefly luciferase luminescence normalized to Renilla, then to m7G-rG), fold increase: HeLa cells; for Effect of cap/5′ UTR modification on protein production / translation: Fluc reporter, result in words; for Protein expression (Firefly luciferase luminescence normalized to Renilla, then to m7G-rG), fold increase: 8-, 24-, 48-hours post-transfection, benchmark m7G-rG
Description: The modularity of this workflow enabled divergent construction and evaluation of mRNAs featuring four different types of cap and 5′ UTR modifications (FIG. 8A): (1) base identities within the 5′ UTR, including as locations beyond the third base (+3 position), (2) phosphodiester linkages within the 5′ UTR, (3) sugar backbone modifications within the 5′ UTR, and (4) cap modifications. The effects of all of these different types of modifications on protein translation were assayed using Firefly luciferase reporter at 8-, 24-, and 48-hours post-transfection.
HeLa cells [ATCC, CCL-2] were maintained in DMEM culture media [ThermoFisher Scientific, 119951] containing 10% FBS and 1% penicillin-streptomycin [ThermoFisher Scientific, 15070063] in a 37° C. incubator with 5% CO2 and passaged at a ratio of 1:10 every 3 days. On the day before mRNA transfection, HeLa cells were seeded at 90% confluence in individual wells on 24-well plates. The following day, 50 ng of Renilla luciferase (internal control) mRNA and 50 ng of modified Firefly luciferase mRNA were transfected using Lipofectamine MessengerMAX Transfection Reagent [ThermoFisher Scientific, LMRNA003] per manufacturer's protocols. Additional controls that contain only Renilla luciferase mRNA or lipofection reagent only were included. Three individual transfections were conducted for each condition. 6 hours after transfection, the transfection media was removed, and cells were trypsinized and reseeded to three white clear-bottom 96-well plates [Corning, 3610] in phenol-red-free media. At 8-, 24-, and 48-hours post-transfection, cell culture media was removed and cells were rinsed with DPBS. Cells were lysed and luciferase activity was measured using the Promega Dual Glo Luciferase Assay System [Promega, E2920]. Firefly luminescence/Renilla luminescence for each well was used as mRNA activity readout. In cases where Nluc and Fluc were used, the protocol was conducted similarly using the Nano-Glo Dual-Luciferase Reporter Assay System [Promega, N1610].

[2] = molecular target: T1, eIF4E (Homo sapiens, UniProt P06730); assay: eIF4E electrophoretic mobility shift assay (EMSA); type: binding; conditions: AF647-labeled capped oligos, read-out: eIF4E dissociation constant (Kd)
T1 construct: His; purchased Cayman Chemical Inc 25150
T1 sequence (P06730 whole entry): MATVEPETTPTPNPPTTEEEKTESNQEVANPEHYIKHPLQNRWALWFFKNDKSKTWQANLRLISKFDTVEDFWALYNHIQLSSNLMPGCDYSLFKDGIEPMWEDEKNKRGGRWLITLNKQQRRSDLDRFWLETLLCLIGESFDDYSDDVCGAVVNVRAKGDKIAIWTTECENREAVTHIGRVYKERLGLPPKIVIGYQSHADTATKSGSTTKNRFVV
Description: eIF4E affinity to fluorophore-labeled capped RNA oligonucleotides was quantified through electrophoretic mobility shift assay (EMSA) (FIGS. 14D and 9A-9E).
Capped oligonucleotides were labeled on the 3′ end using AF647 labeled cytidine-5′-phosphate-3′-(6-aminohexyl) phosphate [Jena Bioscience, NU-1706-AF647] and T4 RNA ligase ligated AF647-labeled cytidine onto the capped oligos using manufacturer's protocols. Oligos were then incubated in the binding buffer (1 mM DTT, 50 mM KCl, 10 mM Tris-HCl (pH 7.6), Novex Hi-Density TBE Sample Buffer [Invitrogen, LC6678]) with varying eIF4E-His [Cayman Chemical Inc, 25150] concentrations prepared by sequential dilutions from the stock solution. The oligos and […] were incubated at 4° C. for 30 mins and characterized by EMSA with Novex TBE Gels, 4-20% [Invitrogen, EC6225BOX] at 4° C. AF647 labeled oligos were imaged with BioRad ChemiDoc MP Imaging System [12003154] and band intensities were quantified using ImageJ. For Kd calculation, the proportions of bound were plotted against eIF4E concentration using GraphPad Prism (Specific binding with Hill slope).

[3] = molecular target: T2, human decapping enzyme 2 (hDcp2) (Homo sapiens, UniProt Q8IU60); assay: hDcp2 decapping assay; type: biochemical; conditions: 23-nt capped oligos; result in words
T2 construct: purchased Enzymax LLC 86
Description: Next, the influence of modifications on decapping activity was examined. To this end, 23-nucleotide (23-nt) oligonucleotides with various modification patterns were subjected to decapping reactions and analyzed at different time intervals (FIGS. 14E and 9I).
500 ng of capped oligos were incubated in 75 μL decapping reaction buffer (10 mM Tris-HCl (pH 7.5), 100 mM NaCl, 2 mM MgCl2, 1 mM DTT, 2 mM MnCl2, 1:25 SUPERaseIn (v/v)) with 300 ng of hDcp2 [Enzymax LLC, 86] at 37° C. At indicated time points, 5 μL of reaction mixture was aliquoted out into 10 μL of denaturing gel-loading buffer [NEB, B0363S, with urea added to a final concentration of 5 M] and cooled to −20° C. until all time points were collected. The fractions were analyzed by PAGE using Novex 15% TBE-Urea gel [Invitrogen, EC6885BOX] by running at 100 V for 2 hours and stained by 1×SYBR Gold [ThermoFisher Scientific, S11494], and visualized using BioRad ChemiDoc MP Imaging System [12003154]. Band intensities were quantified using ImageJ.

Substance	Effect of cap/5′ UTR modification on protein production / translation [1]	further results
construct 1: m7G cap; /5Phos/rArGrArGrArArUrArArArArA (SEQ ID NO: 2) (AGAGAAUAAAAA; m7G cap, 5' phosphate; modified_base 1 OTHER; 5'-phosphate modified nucleotide)	A>G~C~U	
construct 2: m7G cap; /5Phos/rUrGrArGrArArUrArArArArA (SEQ ID NO: 3) (UGAGAAUAAAAA; m7G cap, 5' phosphate; modified_base 1 OTHER; 5'-phosphate modified nucleotide)	A>G~C~U	
construct 3: m7G cap; /5Phos/rCrGrArGrArArUrArArArArA (SEQ ID NO: 4) (CGAGAAUAAAAA; m7G cap, 5' phosphate; modified_base 1 OTHER; 5'-phosphate modified nucleotide)	A>G~C~U	
construct 4: m7G cap; /5Phos/rIrGrArGrArArUrArArArArA (SEQ ID NO: 5) ({P}-r[I]rGrArGrArArUrArArArArA; m7G cap on the 5'-phosphate)	enhanced protein production	
construct 5: m7G cap; /5Phos//iN6Me-rA/rGrArGrArArUrArArArArA (SEQ ID NO: 6) (AGAGAAUAAAAA; m7G cap; 5' phosphate; N6-methyl-A; modified_base 1 OTHER; 5'-phosphate modified N6-methyladenosine)	enhanced protein production	
construct 8: m7G cap; /5Phos//i2FA/rGrArGrArArUrArArArArA (SEQ ID NO: 9) ({P}-fArGrArGrArArUrArArArArA; m7G cap on the 5'-phosphate)	hindered translation	
construct 9: m7G cap; /5Phos//ibetaL-rA/rGrArGrArArUrArArArArA (SEQ ID NO: 10) (AGAGAAUAAAAA; m7G cap; 5' phosphate; beta-L-A; modified_base 1 OTHER; 5'-phosphate modified L-adenosine)	negligible changes	
construct 10: m7G cap; /5Phos/ArGrArGrArArUrArArArArA (SEQ ID NO: 11) ({m7G-cap}-dArGrArGrArArUrArArArArA)	negligible changes	
construct 12: m7G cap; /5Phos//i2MOErA/rGrArGrArArUrArArArArA (SEQ ID NO: 13) ({m7G-cap}-eArGrArGrArArUrArArArArA)		Protein expression (Firefly luciferase luminescence normalized to Renilla, then to m7G-rG), fold increase [1]: 4.8 fold
construct 16: m7G cap; /5Phos//i2MOErA//i2MOErG//i2MOErA//i2MOErG//i2MOErA//i2MOErA/rUrArArArArA (SEQ ID NO: 17) ({P}-eAeGeAeGeAeArUrArArArArA; m7G cap on the 5'-phosphate)		Protein expression (Firefly luciferase luminescence normalized to Renilla, then to m7G-rG), fold increase [1]: 5.4 fold
construct 18: Bn7G cap; /5Phos/rArGrArGrArArUrArArArArA (SEQ ID NO: 19) (AGAGAAUAAAAA; Bn7G cap, 5' phosphate; modified_base 1 OTHER; 5'-phosphate modified nucleotide)	did not outperform m7G	
construct 19: ClBn7G cap; /5Phos/rArGrArGrArArUrArArArArA (SEQ ID NO: 20) (AGAGAAUAAAAA; ClBn7G cap, 5' phosphate; modified_base 1 OTHER; 5'-phosphate modified nucleotide)	did not outperform m7G	
construct 20: ClBnOEt7G cap; /5Phos/rArGrArGrArArUrArArArArA (SEQ ID NO: 21) (AGAGAAUAAAAA; ClBnOEt7G cap, 5' phosphate; modified_base 1 OTHER; 5'-phosphate modified nucleotide)	did not outperform m7G	
construct 21: LNAm7G cap; /5Phos/rArGrArGrArArUrArArArArA (SEQ ID NO: 22) ({P}-rArGrArGrArArUrArArArArA; LNA-modified m7G cap on the 5'-phosphate)		Protein expression (Firefly luciferase luminescence normalized to Renilla, then to m7G-rG), fold increase [1]: 4.5 fold
construct 24: LNAm7G cap; /5Phos/mAmGmAmGmAmArUrArArArArA (SEQ ID NO: 25) ({P}-mAmGmAmGmAmArUrArArArArA; LNA-modified m7G cap on the 5'-phosphate)		Protein expression (Firefly luciferase luminescence normalized to Renilla, then to m7G-rG), fold increase [1]: 7.5 fold; Kd [2]: 1570 ± 116 nM
construct 26: m7G-capped azide oligo /5Phos/rArGrArGrArUrArA/3AzideN/ clicked to uncapped rArArA/i5OCTdU/rArArArArArA (SEQ ID NO: 33) (AAATAAAAAA; m7G-capped azide oligo clicked to internal octyne-dU; modified_base 4 OTHER; 5-Octadiynyl modified uracil; misc_feature 1..3 RNA; misc_feature 4 DNA; misc_feature 5..10 RNA)		Translation of branched / dual-capped Fluc mRNA (bioluminometry), result in words ([1]; topological screening: OU handle position, branching point, branch length, PS): effectively induce mRNA translation
construct 28: m7G cap; OU handle only; /5Phos/rArGrArUrArArA/i5OCTdU/rArArArArArA (SEQ ID NO: 38) (AGATAAATAAAAAA; m7G cap; internal octyne-dU handle; modified_base 1 OTHER; 5'-phosphate modified nucleotide; modified_base 8 OTHER; 5-Octadiynyl modified uracil; misc_feature 1..7 RNA; misc_feature 8 DNA; misc_feature 9..14 RNA)		Kd [2]: 2210 nM
construct 42: dual LNAm7G-capped; /5Phos/rArGrArGrArUrArA/3AzideN/ clicked to /5Phos/rArGrArUrArArA/i5OCTdU/rArArArArArA (SEQ ID NO: 120) (AGATAAATAAAAAA; dual LNA-m7G caps via click branch; modified_base 1 OTHER; 5'-phosphate modified nucleotide; modified_base 8 OTHER; 5-Octadiynyl modified uracil; misc_feature 1..7 RNA; misc_feature 8 DNA; misc_feature 9..14 RNA)		Kd [2]: 1280 nM
construct 43: m7G cap; /5Phos/mAmGmAmGmAmAmUmAmAmAmAmAmAmGmGmGmAmAmUmAmAmAmC (SEQ ID NO: 26) ({P}-mAmGmAmGmAmAmUmAmAmAmAmAmAmGmGmGmAmAmUmAmAmAmC; m7G cap on the 5'-phosphate)		Susceptibility / resistance to hDcp2 decapping [3]: increased decapping resistance to a similar level as LNA modification
